Experimental data: the NIST ThermoML archive (doi:10.1016/j.jct.2016.10.033)

Experiment: refractive index (Na D-line) (dimensionless); xn = mol fraction of the nth substance listed
Conditions: 103 kPa, Liquid, Standard Abbe refractometry

CO[Si](C)(C)OC [dimethoxydimethylsilane] + CO[Si](C)(OC)c1ccccc1
refractive index
Conditions | 298.15 K | 303.15 K | 308.15 K | 313.15 K | 318.15 K
x2 = 0 | 1.36816 | 1.36559 | 1.36297 | 1.36035 | 1.35771
x2 = 0.0501 | 1.37551 | 1.37295 | 1.37035 | 1.36774 | 1.36513
x2 = 0.1001 | 1.3826 | 1.38005 | 1.37748 | 1.37492 | 1.37233
x2 = 0.15 | 1.38945 | 1.38696 | 1.38442 | 1.3819 | 1.37936
x2 = 0.2 | 1.3961 | 1.39364 | 1.39111 | 1.38864 | 1.38612
x2 = 0.25 | 1.40247 | 1.40001 | 1.39748 | 1.39498 | 1.39248
x2 = 0.2999 | 1.40864 | 1.40619 | 1.40369 | 1.40119 | 1.3987
x2 = 0.3499 | 1.41459 | 1.41213 | 1.40966 | 1.40726 | 1.4048
x2 = 0.4001 | 1.42041 | 1.41798 | 1.41551 | 1.41306 | 1.41059
x2 = 0.4501 | 1.42603 | 1.42366 | 1.42126 | 1.41886 | 1.41642
x2 = 0.5001 | 1.43147 | 1.42909 | 1.42667 | 1.42426 | 1.42184
x2 = 0.55 | 1.43672 | 1.43435 | 1.43195 | 1.42958 | 1.42718
x2 = 0.6 | 1.44182 | 1.43946 | 1.43707 | 1.43469 | 1.43232
x2 = 0.6499 | 1.44673 | 1.44437 | 1.44197 | 1.43957 | 1.43718
x2 = 0.6999 | 1.45155 | 1.4492 | 1.44681 | 1.44442 | 1.44204
x2 = 0.75 | 1.45621 | 1.45386 | 1.45148 | 1.44913 | 1.44677
x2 = 0.7997 | 1.46072 | 1.45837 | 1.456 | 1.45364 | 1.45125
x2 = 0.8499 | 1.46514 | 1.46278 | 1.46042 | 1.45805 | 1.45569
x2 = 0.8999 | 1.46939 | 1.46704 | 1.46469 | 1.46234 | 1.45999
x2 = 0.95 | 1.47356 | 1.47121 | 1.46886 | 1.46651 | 1.46417

C=C[Si](C)(OCC)OCC [methylvinyldiethoxysilane] + CO[Si](C)(OC)c1ccccc1
refractive index
Conditions | 298.15 K | 303.15 K | 308.15 K | 313.15 K | 318.15 K
x2 = 0 | 1.39751 | 1.39501 | 1.39249 | 1.38997 | 1.38742
x2 = 0.05 | 1.40161 | 1.39911 | 1.3966 | 1.39407 | 1.39153
x2 = 0.1001 | 1.40569 | 1.40322 | 1.40071 | 1.39819 | 1.39567
x2 = 0.1499 | 1.40975 | 1.40729 | 1.40481 | 1.4023 | 1.39979
x2 = 0.2001 | 1.41382 | 1.41135 | 1.40888 | 1.40639 | 1.40391
x2 = 0.2501 | 1.41792 | 1.41547 | 1.413 | 1.41052 | 1.40804
x2 = 0.3 | 1.42192 | 1.41948 | 1.41702 | 1.41456 | 1.41207
x2 = 0.3499 | 1.42595 | 1.42352 | 1.42108 | 1.41864 | 1.41615
x2 = 0.4 | 1.42999 | 1.42755 | 1.42511 | 1.42265 | 1.4202
x2 = 0.4501 | 1.43404 | 1.43161 | 1.42919 | 1.42673 | 1.4243
x2 = 0.5 | 1.43801 | 1.43558 | 1.43316 | 1.43072 | 1.42827
x2 = 0.5499 | 1.44203 | 1.43961 | 1.43721 | 1.43477 | 1.43237
x2 = 0.6 | 1.44606 | 1.44365 | 1.44126 | 1.43884 | 1.43645
x2 = 0.65 | 1.44994 | 1.44754 | 1.44513 | 1.44272 | 1.4403
x2 = 0.6999 | 1.45398 | 1.45159 | 1.44922 | 1.44683 | 1.44442
x2 = 0.75 | 1.45797 | 1.45558 | 1.45323 | 1.45086 | 1.44847
x2 = 0.7999 | 1.46196 | 1.45958 | 1.45722 | 1.45484 | 1.45248
x2 = 0.85 | 1.46589 | 1.46352 | 1.46116 | 1.45878 | 1.45641
x2 = 0.8998 | 1.46999 | 1.46763 | 1.46528 | 1.4629 | 1.46054
x2 = 0.9499 | 1.47377 | 1.47142 | 1.46907 | 1.46672 | 1.46435
